Data set [1] in a line: Efflux ratio of apparent permeability in human Caco-2 cells. (In general: Caco-2 cells form a polarised layer with tight junctions and transporters.)
Data set [2] is filed under the species Homo sapiens. The data set is described as follows: Ratio Ki for inhibition of JAK2 (unknown origin) over TYK2 JH1 domain (unknown origin).
The species entered for data set [3] is Homo sapiens. The data set is described as follows: Ratio Ki for inhibition of JAK3 (unknown origin) over TYK2 JH1 domain (unknown origin).
The species entered for data set [4] is Homo sapiens. The data set is described as follows: Ratio Ki for inhibition of JAK1 (unknown origin) over TYK2 JH1 domain (unknown origin).
Data set [5] concerns Blood. As to the kind of experiment: Inhibition of IL-12- induced IFN-gamma production in human whole blood. The following applies: for IC50: Homo sapiens, Blood. It counts as functional, tissue-based.
Data set [6] in a line: Thermodynamic solubility in simulated gastric fluid. It counts as physicochemical. The settings on record: read-out: Therm_solubility.
Data set [7] can be described thus: Kinetic solubility of compound at pH 7.4. The settings on record: buffer.
A short description of data set [8]: Thermodynamic solubility in fasted simulated intestinal fluid. The settings on record: read-out: Therm_solubility. Format: physicochemical.
Data set [9] can be described thus: Plasma protein binding in human assessed as unbound fraction.
Data set [10] concerns Blood. As to the kind of experiment: Inhibition of IL-12- induced IFN-gamma production in mouse whole blood. Format: functional, tissue-based. The following applies: for IC50: Mus musculus, Blood.
The nature of data set [11]: Plasma protein binding in mouse assessed as unbound fraction.
The target in data set [12] is Non-receptor tyrosine-protein kinase TYK2 (Homo sapiens, UniProt P29597).
Non-receptor tyrosine-protein kinase TYK2, sequence (P29597 whole entry): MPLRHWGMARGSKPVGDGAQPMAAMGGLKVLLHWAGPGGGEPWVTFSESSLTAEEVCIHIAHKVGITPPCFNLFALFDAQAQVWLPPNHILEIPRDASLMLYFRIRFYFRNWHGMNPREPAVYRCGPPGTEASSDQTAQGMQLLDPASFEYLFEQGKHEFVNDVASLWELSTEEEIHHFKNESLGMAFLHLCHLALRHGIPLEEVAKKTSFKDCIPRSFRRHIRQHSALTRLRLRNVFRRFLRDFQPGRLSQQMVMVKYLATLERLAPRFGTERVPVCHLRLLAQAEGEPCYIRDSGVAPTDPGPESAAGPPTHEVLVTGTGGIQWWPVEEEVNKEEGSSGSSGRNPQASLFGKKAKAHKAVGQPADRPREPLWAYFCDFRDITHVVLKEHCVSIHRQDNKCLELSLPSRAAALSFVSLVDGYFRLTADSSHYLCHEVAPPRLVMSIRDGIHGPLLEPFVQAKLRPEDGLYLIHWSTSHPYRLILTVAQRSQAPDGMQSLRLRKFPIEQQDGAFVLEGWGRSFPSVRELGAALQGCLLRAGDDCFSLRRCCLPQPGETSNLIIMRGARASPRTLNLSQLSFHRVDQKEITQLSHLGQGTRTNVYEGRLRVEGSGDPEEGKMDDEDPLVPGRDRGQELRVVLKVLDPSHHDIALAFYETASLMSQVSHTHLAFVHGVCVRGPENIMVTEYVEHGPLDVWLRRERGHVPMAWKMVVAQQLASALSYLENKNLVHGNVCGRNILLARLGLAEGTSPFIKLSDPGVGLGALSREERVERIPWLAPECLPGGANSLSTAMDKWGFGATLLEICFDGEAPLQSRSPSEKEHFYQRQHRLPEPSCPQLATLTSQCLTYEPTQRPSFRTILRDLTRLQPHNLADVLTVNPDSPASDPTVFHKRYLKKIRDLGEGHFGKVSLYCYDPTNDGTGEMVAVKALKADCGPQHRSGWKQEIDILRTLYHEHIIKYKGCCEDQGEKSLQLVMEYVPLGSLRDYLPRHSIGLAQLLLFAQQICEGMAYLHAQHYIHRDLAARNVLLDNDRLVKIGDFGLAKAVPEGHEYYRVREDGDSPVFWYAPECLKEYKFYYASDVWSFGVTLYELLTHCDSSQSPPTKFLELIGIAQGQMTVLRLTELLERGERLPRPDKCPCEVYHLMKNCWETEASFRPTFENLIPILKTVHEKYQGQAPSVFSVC
Description: Inhibition of TYK2 JH1 domain (unknown origin) measured in presence of 10 uM ATP

Converted amounts (≈) assume the structure as drawn.

Regarding `CCNC(=O)C(C)(O)c1ccc(Nc2nc(-c3c(F)cccc3F)nc3c2C(=O)NC3)cc1` (stereo in doubt; 13a) [listing 1 of 2 here], the efflux ratio in data set [1] was 32.

As to `CCNC(=O)c1ccc(Nc2cc(-c3c(F)cccc3C#N)nc3c2C(=O)NC3)nc1`, the Ratio Ki was determined as 15 in the data set filed under Homo sapiens [2], 69 in the data set listed under Homo sapiens [3] and 6.5 in the data set filed under Homo sapiens [4].

On to `O=C1NCc2nc(-c3c(F)cccc3F)nc(Nc3ccc(C4CCNC4=O)cc3)c21` (stereo in doubt; 14a), for which the Ratio Ki in the data set listed under Homo sapiens [2] worked out at 35; in the data set filed under Homo sapiens [3] it was 4; in the data set listed under Homo sapiens [4], 37.

`CCNC(=O)c1ccc(Nc2cc(-c3c(F)cccc3F)nc3c2C(=O)NC3)nc1`: the Ratio Ki was 170 in the data set listed under Homo sapiens [2], 24 in the data set listed under Homo sapiens [3] and 84 in the data set filed under Homo sapiens [4]. Also, in data set [1], the efflux ratio came to 7.2. The fIC50 in the data set with Blood [5] was found to be 0.27 µM; with Blood [10] it was 0.19 µM. The IC50 in the data set with Blood [5] worked out at 1600 nM; in the data set on Blood [10], 1200 nM. Further, the values for the solubility thermodynamic in [6] and in data set [8] were 255 µM (≈ 104 µg/mL) and 15 µM (≈ 6.14 µg/mL), respectively. This compound came in with a solubility (kinetic) in data set [7] of 3.1 µM (≈ 1.27 µg/mL). For the same compound, the fraction unbound in [9] stood at 0.17; in [11] it was 0.16.

On to `NC(=O)c1ccc(NC(=O)c2ccc[nH]c2=O)cc1`, for which the Ratio Ki in the data set filed under Homo sapiens [2] was found to be 1.1; in the data set filed under Homo sapiens [3], 2.3; in the data set filed under Homo sapiens [4], 1.4.

For `O=C1NCc2nc(-c3c(F)cccc3F)nc(Nc3ccc(C4CCCNC4=O)cc3)c21` (stereo in doubt; 15b) [listing 1 of 2 here], the Ratio Ki in the data set filed under Homo sapiens [2] was 84; in the data set filed under Homo sapiens [3], 10; in the data set listed under Homo sapiens [4] it was 130.

For `O=C1NCc2nc(-c3c(F)cccc3F)cc(Nc3ccc(C(=O)N4CCCC4)cn3)c21`, the Ratio Ki came out at 23 in the data set filed under Homo sapiens [2], 3.3 in the data set listed under Homo sapiens [3] and 53 in the data set filed under Homo sapiens [4].

Turning to `N#Cc1cccc(F)c1-c1cc(Nc2ccc(N3CCOCC3)cn2)c2c(n1)CNC2=O`, the Ratio Ki in the data set listed under Homo sapiens [2] amounted to 26; in the data set listed under Homo sapiens [3] it was 170; in the data set filed under Homo sapiens [4] it was 27.

As to `O=C1NCc2nc(-c3c(F)cccc3F)nc(Nc3ccc(C4CCNC4=O)cc3)c21` (stereo in doubt; 14b) [listing 1 of 2 here], the Ratio Ki in the data set filed under Homo sapiens [2] was 96; in the data set filed under Homo sapiens [3], 15; in the data set listed under Homo sapiens [4], 55.

On to `O=C1NCc2nc(-c3c(F)cccc3F)cc(Nc3ccc(N4CCOCC4)cn3)c21`, for which the Ratio Ki was determined as 120 in the data set listed under Homo sapiens [2], 25 in the data set filed under Homo sapiens [3] and 160 in the data set listed under Homo sapiens [4]. The efflux ratio in [1] came out at 0.58. This compound also gave a solubility (kinetic) in data set [7] of 12 µM (≈ 5.08 µg/mL).

Take `CN1CCN(C(=O)Cc2ccc(Nc3nc(-c4c(F)cccc4F)nc4c3C(=O)NC4)cc2)CC1`: the results for the Ratio Ki in the data set filed under Homo sapiens [2], in the data set listed under Homo sapiens [3] and in the data set filed under Homo sapiens [4] were 52, 10 and 89, respectively.

With `CCNC(=O)c1ccc(Nc2cc(-c3c(F)cccc3Cl)nc3c2C(=O)NC3)nc1`, the Ratio Ki in the data set filed under Homo sapiens [2] turned out to be 12; in the data set listed under Homo sapiens [3], 1.8; in the data set filed under Homo sapiens [4], 7.3.

Turning to `O=C1NCc2nc(-c3c(F)cccc3F)cc(Nc3ccc(C(=O)N4CCOCC4)cn3)c21`, the Ratio Ki in the data set filed under Homo sapiens [2] came out at 18; in the data set listed under Homo sapiens [3] it was 2.3; in the data set listed under Homo sapiens [4] it was 16.

Take `CCNC(=O)C(C)(O)c1ccc(Nc2nc(-c3c(F)cccc3F)nc3c2C(=O)NC3)cc1` (stereo in doubt; 13b) [listing 1 of 2 here]: the Ratio Ki in the data set filed under Homo sapiens [2] worked out at 123; in the data set filed under Homo sapiens [3], 13; in the data set listed under Homo sapiens [4] it was 27.

As for `O=C1NCc2nc(-c3c(F)cccc3F)cc(Nc3ccc(C(=O)N4CCOCC4)cc3)c21`, the Ratio Ki in the data set listed under Homo sapiens [2] is 35; in the data set filed under Homo sapiens [3], 8.6; in the data set listed under Homo sapiens [4], 92. Also, in [1], the efflux ratio was determined as 9.1. Moreover, the fIC50 in the data set with Blood [5] stood at 0.16 µM; in the data set with Blood [10], 0.86 µM. Also, the values for the IC50 in the data set on Blood [5] and with Blood [10] were 620 nM and 3600 nM, respectively. Also, the kinetic solubility in [7] is 170 µM (≈ 76.6 µg/mL). In data set [8], the solubility thermodynamic is 148 µM (≈ 66.7 µg/mL). Also, the fraction unbound in data set [9] is 0.25; in data set [11], 0.24.

Turning to `O=C1NCc2nc(-c3c(F)cccc3F)nc(Nc3ccc(C4CCNC4=O)cc3)c21` (stereo in doubt; 14b) [listing 2 of 2 here], in [12], the affinity corresponds to a Ki of 1.1 nM.

As to `O=C1NCc2nc(-c3c(F)cccc3F)nc(Nc3ccc(CC(=O)N4CCOCC4)cc3)c21`, the Ratio Ki came to 47 in the data set listed under Homo sapiens [2], 8.8 in the data set filed under Homo sapiens [3] and 59 in the data set filed under Homo sapiens [4].

For `CCNC(=O)Cc1ccc(Nc2nc(-c3c(F)cccc3F)nc3c2C(=O)NC3)cc1`, the Ratio Ki in the data set listed under Homo sapiens [2] was 30; in the data set listed under Homo sapiens [3] it was 4.6; in the data set filed under Homo sapiens [4], 17. In data set [1], the efflux ratio came out at 6.4. Besides, the solubility (kinetic) in data set [7] came out at 1.2 µM (≈ 0.508 µg/mL).

Regarding `O=C1NCc2nc(-c3c(F)cccc3F)nc(Nc3ccc(CC(=O)N4CCN(CC(F)F)CC4)cc3)c21`, the Ratio Ki in the data set filed under Homo sapiens [2] was found to be 24; in the data set listed under Homo sapiens [3], 2.3; in the data set filed under Homo sapiens [4], 31.

Take `O=C1NCc2nc(-c3c(F)cccc3F)nc(Nc3ccc(C4CCCNC4=O)cc3)c21` (stereo in doubt; 15a): the Ratio Ki in the data set listed under Homo sapiens [2] was 83; in the data set listed under Homo sapiens [3] it was 19; in the data set listed under Homo sapiens [4], 77.

As for `CCNC(=O)C(C)(O)c1ccc(Nc2nc(-c3c(F)cccc3F)nc3c2C(=O)NC3)cc1` (stereo in doubt; 13a) [listing 2 of 2 here], the Ratio Ki came out at 300 in the data set listed under Homo sapiens [2], 43 in the data set filed under Homo sapiens [3] and 87 in the data set filed under Homo sapiens [4].

For `O=C1NCc2nc(-c3c(F)cccc3F)cc(Nc3ccc(N4CCC(F)(F)CC4)cn3)c21`, the Ratio Ki was 370 in the data set filed under Homo sapiens [2], 32 in the data set filed under Homo sapiens [3] and 400 in the data set listed under Homo sapiens [4]. Further, in [1], the efflux ratio was 0.68. In data set [7], this compound displayed a kinetic solubility of 2.4 µM (≈ 1.1 µg/mL).

For `CCNC(=O)C(C)(O)c1ccc(Nc2nc(-c3c(F)cccc3F)nc3c2C(=O)NC3)cc1` (stereo in doubt; 13b) [listing 2 of 2 here], affinity in data set [12] was put at a Ki of 3.4 nM.

As to `O=C1NCc2nc(-c3c(F)cccc3F)cc(Nc3ccc(N4CCC(O)CC4)cn3)c21`, the Ratio Ki in the data set filed under Homo sapiens [2] was 120; in the data set listed under Homo sapiens [3], 25; in the data set listed under Homo sapiens [4] it was 160. The efflux ratio in data set [1] is 1.5. In addition, the kinetic solubility in data set [7] stood at 65 µM (≈ 28.4 µg/mL).

Turning to `O=C1NCc2nc(-c3c(F)cccc3F)cc(Nc3ccc(C(=O)N4CC[C@H](O)C4)cc3)c21`, the Ratio Ki in the data set filed under Homo sapiens [2] came to 110; in the data set filed under Homo sapiens [3] it was 14; in the data set listed under Homo sapiens [4], 110. Besides, the efflux ratio in [1] stood at 60. The kinetic solubility in [7] was determined as 290 µM (≈ 131 µg/mL).

In the case of `COc1ccc(Nc2nc(-c3c(F)cccc3F)nc3c2C(=O)NC3)cc1`, the results for the Ratio Ki in the data set filed under Homo sapiens [2], in the data set filed under Homo sapiens [3] and in the data set listed under Homo sapiens [4] were 240, 11 and 25, respectively.

As to `CCNC(=O)Cc1ccc(Nc2cc(-c3c(F)cccc3F)nc3c2C(=O)NC3)nc1`, the Ratio Ki was found to be 72 in the data set listed under Homo sapiens [2], 5.7 in the data set listed under Homo sapiens [3] and 39 in the data set listed under Homo sapiens [4]. Further, the efflux ratio in data set [1] amounted to 9.6. The kinetic solubility in [7] came to 0.6 µM (≈ 0.254 µg/mL).

For `NC(=O)c1cnc(-c2c(F)cccc2F)nc1Nc1ccc(CC(=O)O)cc1`, the Ratio Ki was 74 in the data set listed under Homo sapiens [2], 95 in the data set listed under Homo sapiens [3] and 7.8 in the data set filed under Homo sapiens [4].

Regarding `CC(C)c1nc(Nc2ccc(C(=O)O)cc2)c2c(=O)[nH]ccc2n1`, the Ratio Ki in the data set listed under Homo sapiens [2] is 2.5; in the data set listed under Homo sapiens [3] it was 1.3; in the data set filed under Homo sapiens [4], 5.3.

Take `O=C1NCc2nc(-c3c(F)cccc3F)cc(Nc3ccc(N4CCOCC4=O)cn3)c21`: the Ratio Ki was 77 in the data set listed under Homo sapiens [2], 13 in the data set listed under Homo sapiens [3] and 80 in the data set listed under Homo sapiens [4]. Moreover, the efflux ratio in [1] is 7.8. The solubility thermodynamic was 418 µM (≈ 183 µg/mL) in data set [6] and 24 µM (≈ 10.5 µg/mL) in [8]. The compound also returned a solubility (kinetic) in data set [7] of 8.9 µM (≈ 3.89 µg/mL).

In data set [12], `O=C1NCc2nc(-c3c(F)cccc3F)nc(Nc3ccc(C4CCCNC4=O)cc3)c21` (stereo in doubt; 15b) [listing 2 of 2 here] returned an inhibition constant Ki of 3.9 nM.

Broadly, the efflux ratio is a quotient of directional permeabilities that is used to spot active efflux. One may read the IC50 as the concentration that gives 50% inhibition. Lower therefore signals greater potency. Broadly, the kinetic solubility is the concentration staying in solution when a stock, usually in DMSO, is diluted into the medium. One may read the fraction unbound as free concentration divided by total concentration. A word on the Ki: it is a dissociation constant, usually derived from enzyme kinetics or from competition with a known ligand.

Source of the values: ChEMBL document CHEMBL5104135, “Potent and selective TYK2-JH1 inhibitors highly efficacious in rodent model of psoriasis” (Bioorg Med Chem Lett, 2022).
